The text below walks through data of patent publication US20100240630A1, “COMPOUNDS AND THERAPEUTIC USES THEREOF” (Myriad Pharmaceuticals, Inc.., priority 2007, published 2010).

pEC50: −log10 of the molar value. A value given as a limit tells only on which side of the number the result lay.

The test has as its system HIV-1 laboratory strain, NL4-3. Kind of test: MT-4 cytoprotection assay (WST-1 readout). It is filed as cell-based. The note with it: Human immunodeficiency virus 1, NL43, MT4, 96 h; MT-4 cells infected with HIV-1 NL4-3, MOI 0.0005, four days incubation; read-out: EC50, antiviral activity in the MT4 assay (most active compounds). As for the experimental part:
The compounds of the invention can be tested in the following MT-4 assay to detect antiviral activity.
The HTLV-1 transformed T cell line, MT-4, is highly susceptible to HIV-1 infection. Anti-HIV-1 agents were evaluated in this target cell line by protection from the HIV-induced cytopathic effect. In this assay, viability of both HIV-1 and mock-infected cells was assessed in a colorimetric assay that monitors the ability of metabolically-active cells to reduce the tetrazolium salt WST-1. Cytoprotection by antiviral compounds is indicated by the positive readout of increased WST-1 cleavage.
Briefly, exponentially growing MT-4 cells were mock-infected or batch-infected with the HIV-1 laboratory strain, NL4-3, at a multiplicity of infection of 0.0005. Following a two hour infection, the cells were washed to remove unbound virus and plated in the presence of increasing concentrations of compound. After four days incubation, cytoprotection in the infected cells and compound toxicity in mock-infected cells were analyzed using the WST-1 assay.
As to `C=C(C)[C@@H]1CC[C@]2(C#Cc3ccccc3C(=O)O)CC[C@]3(C)C(CCC4[C@@]5(C)CC[C@H](OC(=O)CC(C)(C)C(=O)O)C(C)(C)C5CC[C@]43C)C12` (stereo partly drawn) [Compound 6, 2,2-Dimethyl-succinic acid 4-[(1R,5aR,5bR,9S,11aR)-3a-(2-carboxy-phenylethynyl)-1-isopropenyl-5a,5b,8,8,11a-pentamethyl-icosahydro-cyclopenta[a]chrysen-9-yl]ester], the negative logarithm of the EC50 (pEC50) was no less than 7.00.
To `C=C(C)[C@@H]1CC[C@]2(C#Cc3sccc3C(=O)O)CC[C@]3(C)C(CCC4[C@@]5(C)CC[C@H](OC(=O)CC(C)(C)C(=O)O)C(C)(C)C5CC[C@]43C)C12` (some centres unmarked) [Compound 9] belongs no less than 7.00; to `C=C(C)[C@@H]1CC[C@]2(C#Cc3ccsc3C(=O)O)CC[C@]3(C)C(CCC4[C@@]5(C)CC[C@H](OC(=O)CC(C)(C)C(=O)O)C(C)(C)C5CC[C@]43C)C12` (some centres unmarked) [Compound 11], no less than 7.00.
To `C=C(C)[C@@H]1CC[C@]2(C#Cc3cc(F)ccc3C(=O)O)CC[C@]3(C)C(CCC4[C@@]5(C)CC[C@H](OC(=O)CC(C)(C)C(=O)O)C(C)(C)C5CC[C@]43C)C12` (some centres unmarked) [Compound 13] belongs no less than 7.00; to `C=C(C)[C@@H]1CC[C@]2(C#Cc3ccsc3-c3nnn[nH]3)CC[C@]3(C)C(CCC4[C@@]5(C)CC[C@H](OC(=O)CC(C)(C)C(=O)O)C(C)(C)C5CC[C@]43C)C12` (some centres unmarked) [Compound 18], no less than 7.00.
To `C=C(C)[C@@H]1CC[C@]2(C#Cc3cccc(F)c3C(=O)O)CC[C@]3(C)C(CCC4[C@@]5(C)CC[C@H](OC(=O)CC(C)(C)C(=O)O)C(C)(C)C5CC[C@]43C)C12` (some centres unmarked) [Compound 20] belongs no less than 7.00; to `C=C(C)[C@@H]1CC[C@]2(C#Cc3ccc(F)cc3C(=O)O)CC[C@]3(C)C(CCC4[C@@]5(C)CC[C@H](OC(=O)CC(C)(C)C(=O)O)C(C)(C)C5CC[C@]43C)C12` (some centres unmarked) [Compound 21], no less than 7.00.
In the case of `C=C(C)[C@@H]1CC[C@]2(C#Cc3c(C)cccc3C(=O)O)CC[C@]3(C)C(CCC4[C@@]5(C)CC[C@H](OC(=O)CC(C)(C)C(=O)O)C(C)(C)C5CC[C@]43C)C12` (some centres unmarked) [Compound 22], the pEC50 was no less than 7.00.
To `C=C(C)[C@@H]1CC[C@]2(C#Cc3ccccc3C(N)=O)CC[C@]3(C)C(CCC4[C@@]5(C)CC[C@H](OC(=O)CC(C)(C)C(=O)O)C(C)(C)C5CC[C@]43C)C12` (some centres unmarked) [Compound 27] belongs no less than 7.00.
To `C=C(C)[C@@H]1CC[C@]2(CCc3ccccc3C(=O)O)CC[C@]3(C)C(CCC4[C@@]5(C)CC[C@H](OC(=O)CC(C)(C)C(=O)O)C(C)(C)C5CC[C@]43C)C12` (some centres unmarked) [Compound 28] belongs no less than 7.00.
For `C=C(C)[C@@H]1CC[C@]2(C#Cc3ccccc3C(=O)N(C)C)CC[C@]3(C)C(CCC4[C@@]5(C)CC[C@H](OC(=O)CC(C)(C)C(=O)O)C(C)(C)C5CC[C@]43C)C12` (some centres unmarked) [Compound 30] the value was no less than 7.00.
Turning to `C=C(C)[C@@H]1CC[C@]2(C#Cc3ccccc3S(C)(=O)=O)CC[C@]3(C)C(CCC4[C@@]5(C)CC[C@H](OC(=O)CC(C)(C)C(=O)O)C(C)(C)C5CC[C@]43C)C12` (some centres unmarked) [Compound 32], the pEC50 was no less than 7.00.
To `C=C(C)[C@@H]1CC[C@]2(C#Cc3cc(Cl)ccc3C(=O)O)CC[C@]3(C)C(CCC4[C@@]5(C)CC[C@H](OC(=O)CC(C)(C)C(=O)O)C(C)(C)C5CC[C@]43C)C12` (some centres unmarked) [Compound 34] belongs no less than 7.00.
To `C=C(C)[C@@H]1CC[C@]2(C#Cc3ccc(Cl)cc3C(=O)O)CC[C@]3(C)C(CCC4[C@@]5(C)CCC(OC(=O)CC(C)(C)C(=O)O)C(C)(C)C5CC[C@]43C)C12` (some centres unmarked) [Compound 35] belongs no less than 7.00.
To `C=C(C)[C@@H]1CC[C@]2(C#Cc3cc(C)ccc3C(=O)O)CC[C@]3(C)C(CCC4[C@@]5(C)CC[C@H](OC(=O)CC(C)(C)C(=O)O)C(C)(C)C5CC[C@]43C)C12` (some centres unmarked) [Compound 36] belongs no less than 7.00; to `C=C(C)[C@@H]1CC[C@]2(C#CC3=C(C(=O)O)CCC3)CC[C@]3(C)C(CCC4[C@@]5(C)CC[C@H](OC(=O)CC(C)(C)C(=O)O)C(C)(C)C5CC[C@]43C)C12` (some centres unmarked) [Compound 41], no less than 7.00; to `C=C(C)[C@@H]1CC[C@]2(C#CC3=C(C(=O)O)CN(C(=O)OC(C)(C)C)CC3)CC[C@]3(C)C(CCC4[C@@]5(C)CC[C@H](OC(=O)CC(C)(C)C(=O)O)C(C)(C)C5CC[C@]43C)C12` (some centres unmarked) [Compound 42], no less than 7.00.
For `C=C(C)[C@@H]1CC[C@]2(C#CC3=C(C(=O)O)CNCC3)CC[C@]3(C)C(CCC4[C@@]5(C)CC[C@H](OC(=O)CC(C)(C)C(=O)O)C(C)(C)C5CC[C@]43C)C12` (some centres unmarked) [Compound 43], the pEC50 was no less than 7.00.
For `C=C(C)[C@@H]1CC[C@]2(C#CC3=C(C(=O)O)CCCC3)CC[C@]3(C)C(CCC4[C@@]5(C)CC[C@H](OC(=O)CC(C)(C)C(=O)O)C(C)(C)C5CC[C@]43C)C12` (some centres unmarked) [Compound 45] the value was no less than 7.00; for `C=C(C)[C@@H]1CC[C@]2(C#Cc3ccc(OC)c(OC)c3C(=O)O)CC[C@]3(C)C(CCC4[C@@]5(C)CC[C@H](OC(=O)CC(C)(C)C(=O)O)C(C)(C)C5CC[C@]43C)C12` (some centres unmarked) [Compound 50], no less than 7.00; for `C=C(C)[C@@H]1CC[C@]2(C#Cc3cccc(Cl)c3C(=O)O)CC[C@]3(C)C(CCC4[C@@]5(C)CC[C@H](OC(=O)CC(C)(C)C(=O)O)C(C)(C)C5CC[C@]43C)C12` (some centres unmarked) [Compound 51], no less than 7.00.
For `C=C(C)[C@@H]1CC[C@]2(C#Cc3ccncc3C(=O)O)CC[C@]3(C)C(CCC4[C@@]5(C)CC[C@H](OC(=O)CC(C)(C)C(=O)O)C(C)(C)C5CC[C@]43C)C12` (some centres unmarked) [Compound 54] the value was no less than 7.00; for `C=C(C)[C@@H]1CC[C@]2(C#Cc3ccccc3C(=O)NS(C)(=O)=O)CC[C@]3(C)C(CCC4[C@@]5(C)CC[C@H](OC(=O)CC(C)(C)C(=O)O)C(C)(C)C5CC[C@]43C)C12` (some centres unmarked) [Compound 55], no less than 7.00.
